# Laboratory results published in patent US12077503B2, “Substituted cyclic amides and their use as herbicides” (FMC CORPORATION, priority 2015, dated 2024).
# Experiments:
# Format in all cases: in vivo
# [1] = tested on: Kochia (Kochia scoparia); assay: Test A preemergence; settings: preemergence, 0 to 100 scale where 0 is no effect and 100 is complete control
# Procedure, shortened: (§1)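 Seeded soil received test chemicals as a preemergence directed spray, and seedlings at one to two leaves, 2–10 cm tall, received them postemergence, in a non-phytotoxic, surfactant-containing solvent mixture. Pots were held in a greenhouse for approximately 10 d, then rated for injury from 0, no effect, to 100, complete control.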
# [2] = tested on: barnyardgrass (Echinochloa crus-galli); assay: Test A preemergence; settings: preemergence, 0 to 100 scale where 0 is no effect and 100 is complete control
# Procedure, shortened: as §1
# [3] = tested on: giant foxtail (Setaria faberii); assay: Test A preemergence; settings: preemergence, 0 to 100 scale where 0 is no effect and 100 is complete control
# Procedure, shortened: as §1
# [4] = tested on: pigweed (Amaranthus retroflexus); assay: Test A preemergence; settings: preemergence, 0 to 100 scale where 0 is no effect and 100 is complete control
# [5] = tested on: ragweed (common ragweed, Ambrosia elatior); assay: Test A preemergence; settings: preemergence, 0 to 100 scale where 0 is no effect and 100 is complete control
# Procedure, shortened: as §1
# [6] = tested on: ryegrass, Italian (Italian ryegrass, Lolium multiflorum); assay: Test A preemergence; settings: preemergence, 0 to 100 scale where 0 is no effect and 100 is complete control
# Procedure, shortened: as §1
# [7] = tested on: Galium (catchweed bedstraw, Galium aparine); assay: Test A postemergence; settings: postemergence
# Procedure, shortened: as §1
# [8] = tested on: Kochia (Kochia scoparia); assay: Test A postemergence; settings: postemergence
# Procedure, shortened: as §1
# [9] = tested on: barnyardgrass (Echinochloa crus-galli); assay: Test A postemergence; settings: postemergence
# Procedure, shortened: as §1
# [10] = tested on: blackgrass (Alopecurus myosuroides); assay: Test A postemergence; settings: postemergence
# Procedure, shortened: as §1
# [11] = tested on: corn (Zea mays); assay: Test A postemergence; settings: postemergence
# Procedure, shortened: as §1
# [12] = tested on: giant foxtail (Setaria faberii); assay: Test A postemergence; settings: postemergence
# Procedure, shortened: as §1
# [13] = tested on: pigweed (Amaranthus retroflexus); assay: Test A postemergence; settings: postemergence
# Procedure, shortened: as §1
# [14] = tested on: ragweed (common ragweed, Ambrosia elatior); assay: Test A postemergence; settings: postemergence
# Procedure, shortened: as §1
# [15] = tested on: ryegrass, Italian (Italian ryegrass, Lolium multiflorum); assay: Test A postemergence; settings: postemergence
# Procedure, shortened: as §1
# [16] = tested on: wheat (Triticum aestivum); assay: Test A postemergence; settings: 125 g ai/ha, postemergence, visual injury vs untreated controls after approx. 10 d; 0 = no effect, 100 = complete control
# Procedure, shortened: as §1
# [17] = tested on: barnyardgrass (Echinochloa crus-galli); assay: Test B flooded paddy test; settings: 250 g ai/ha, Flood; 0 to 100 scale where 0 is no effect and 100 is complete control
# Procedure, shortened: (§2)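 Plants at 2-leaf stage flooded to 3 cm above soil, with compounds applied directly to paddy water and that depth maintained. Plants kept in greenhouse 13–15 d. Visual rating versus controls on a 0 (no effect) to 100 (complete control) scale.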
# [18] = tested on: ducksalad (Heteranthera limosa); assay: Test B flooded paddy test; settings: 250 g ai/ha, Flood; 0 to 100 scale where 0 is no effect and 100 is complete control
# Procedure, shortened: as §2
# [19] = tested on: rice (Oryra sativa); assay: Test B flooded paddy test; settings: 250 g ai/ha, Flood; 0 to 100 scale where 0 is no effect and 100 is complete control
# Procedure, shortened: as §2
# [20] = tested on: sedge, umbrella (small-flower umbrella sedge, Cyperus difformis); assay: Test B flooded paddy test; settings: 250 g ai/ha, Flood; 0 to 100 scale where 0 is no effect and 100 is complete control
# Procedure, shortened: as §2
# [21] = 125 g ai/ha, visual injury rating, approximately 10 d
# [22] = 125 g ai/ha, visual injury vs untreated controls after approx. 10 d, 0 = no effect, 100 = complete control
# [23] = 500 g ai/ha, 0 to 100 scale, 0 is no effect, 100 is complete control
compound,measurement,setting,value
O=C1NCC(c2cccc(C(F)(F)F)c2)C1C(=O)Nc1ccccc1O (centres unmarked) [Compound 1241],Kochia plant response rating,[1]; [21],0
same,Kochia plant response rating,[1]; 500 g ai/ha,0
same,Barnyardgrass plant response rating,[2]; [21],0
same,Barnyardgrass plant response rating,[2]; 500 g ai/ha,0
same,"Foxtail, Giant plant response rating",[3]; [21],0
same,"Foxtail, Giant plant response rating",[3]; 500 g ai/ha,0
same,Pigweed plant response rating,[4]; [21],0
same,Pigweed plant response rating,[4]; 500 g ai/ha,0
same,Ragweed plant response rating,[5]; [21],0
same,Ragweed plant response rating,[5]; 500 g ai/ha,0
same,"Ryegrass, Italian plant response rating",[6]; [21],0
same,"Ryegrass, Italian plant response rating",[6]; 500 g ai/ha,0
same,Galium plant response rating (0 to 100 scale),[7]; [22],0
same,Galium plant response rating,[7]; [23],0
same,Kochia plant response rating (0 to 100 scale),[8]; [22],0
same,Kochia plant response rating,[8]; [23],0
same,Barnyardgrass plant response rating (0 to 100 scale),[9]; [22],0
same,Barnyardgrass plant response rating,[9]; [23],30
same,Blackgrass plant response rating (0 to 100 scale),[10]; [22],0
same,Blackgrass plant response rating,[10]; [23],0
same,Corn plant response rating (0 to 100 scale),[11]; [22],0
same,Corn plant response rating,[11]; [23],20
same,"Foxtail, Giant plant response rating (0 to 100 scale)",[12]; [22],0
same,"Foxtail, Giant plant response rating",[12]; [23],20
same,Pigweed plant response rating (0 to 100 scale),[13]; [22],0
same,Pigweed plant response rating,[13]; [23],0
same,Ragweed plant response rating (0 to 100 scale),[14]; [22],0
same,Ragweed plant response rating,[14]; [23],0
same,"Ryegrass, Italian plant response rating (0 to 100 scale)",[15]; [22],0
same,"Ryegrass, Italian plant response rating",[15]; [23],0
same,Wheat plant response rating (0 to 100 scale),[16],0
same,Barnyardgrass plant response rating,[17],0
same,Ducksalad plant response rating,[18],0
same,Rice plant response rating,[19],0
same,"Sedge, Umbrella plant response rating",[20],0
